According to patent publication US20160355483A1, “COMPOUND BINDING TO PPARG BUT NOT ACTING AS PROMOTER AND PHARMACEUTICAL COMPOSITION FOR TREATING PPARG-RELATED DISEASES CONTAINING SAME AS ACTIVE INGREDIENT” (Hyundai Pharm Co., Ltd., priority 2014, published 2016):
“Also recorded” adds a separate entry of the source.

How the values were obtained:
CYP 2C19 = target: T1, CYP 2C19 (Homo sapiens, UniProt P33261); test: CYP (cytochrome P450)-suppressing effect, BD GENTEST kit; assay type: in vitro ADME
T1 construct: purchased BD GENTEST 459400
T1 sequence (P33261 whole entry): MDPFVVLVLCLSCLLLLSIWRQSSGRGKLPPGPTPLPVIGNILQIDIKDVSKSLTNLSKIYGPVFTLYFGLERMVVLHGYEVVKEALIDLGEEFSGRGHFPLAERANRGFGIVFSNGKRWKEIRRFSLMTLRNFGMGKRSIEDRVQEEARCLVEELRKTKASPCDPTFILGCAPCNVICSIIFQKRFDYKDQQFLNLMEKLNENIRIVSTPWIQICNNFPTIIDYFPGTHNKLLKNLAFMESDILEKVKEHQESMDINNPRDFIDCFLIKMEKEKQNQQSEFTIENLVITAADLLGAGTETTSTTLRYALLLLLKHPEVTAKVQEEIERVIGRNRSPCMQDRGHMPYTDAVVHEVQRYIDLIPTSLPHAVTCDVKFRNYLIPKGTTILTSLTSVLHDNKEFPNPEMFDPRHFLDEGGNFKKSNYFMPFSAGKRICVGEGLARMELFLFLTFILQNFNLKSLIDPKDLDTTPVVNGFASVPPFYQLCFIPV
Protocol: (§1) To evaluate the CYP (cytochrome P450)-suppressing activity of the compounds prepared in the examples of the invention, the following experiment was performed.
(§2) The analysis of CYP1A2, 2C19, and 3A4 suppressing activity was performed by using a BD GENTEST (459100, 459400, and 459500) kit, and the analysis of CYP 2C9- and 2D6-suppressing activity was performed by using an Invitrogen (P2861 and P2862) kit.
(§3) When the BD GENTEST kit was used, the compounds of the present invention were diluted in acetonitrile at the final concentration of 50×. The NADPH-Cofactor mix was prepared by diluting the Cofactor, G6PDH, and control protein provided by the kit in DW according to the instructed concentration. 4 μL of the compound of the example (50×) was mixed with 96 μL of NADPH-Cofactor mix in a 96-well plate, followed by pre-incubation in a 37° C. incubator for 10 minutes.
(§4) The enzyme/substrate mixture was diluted in the buffer (0.5 M potassium phosphate, pH 7.4) provided by the kit according to the instructed concentration. Each CYP450 enzyme substrate was diluted in DW at a desired concentration respectively according to the corresponding types of CYP450. 100 μL of the enzyme/substrate mixture was loaded in the plate when the pre-incubation had been completed, followed by reaction in a 37° C. incubator for 15 minutes (1A2) and 30 minutes (3A4 and 2C19). Upon completion of the reaction, the mixture was transferred to a white plate, and the fluorescent wavelength was measured with a microplate reader (1A2, 2C19 excitation 410 nm, emission 460 nm; 3A4, excitation 409 nm, emission 530 nm).
(§5) The test results were calculated by the following formula:
(§6) (1−(fluorescence value of the test material/fluorescence value of the vehicle))×100%.

CYP 3A4 = target: T2, CYP 3A4 (Homo sapiens, UniProt P08684); test: as above; assay type: in vitro ADME
T2 construct: purchased BD GENTEST 459500
T2 sequence (P08684 whole entry): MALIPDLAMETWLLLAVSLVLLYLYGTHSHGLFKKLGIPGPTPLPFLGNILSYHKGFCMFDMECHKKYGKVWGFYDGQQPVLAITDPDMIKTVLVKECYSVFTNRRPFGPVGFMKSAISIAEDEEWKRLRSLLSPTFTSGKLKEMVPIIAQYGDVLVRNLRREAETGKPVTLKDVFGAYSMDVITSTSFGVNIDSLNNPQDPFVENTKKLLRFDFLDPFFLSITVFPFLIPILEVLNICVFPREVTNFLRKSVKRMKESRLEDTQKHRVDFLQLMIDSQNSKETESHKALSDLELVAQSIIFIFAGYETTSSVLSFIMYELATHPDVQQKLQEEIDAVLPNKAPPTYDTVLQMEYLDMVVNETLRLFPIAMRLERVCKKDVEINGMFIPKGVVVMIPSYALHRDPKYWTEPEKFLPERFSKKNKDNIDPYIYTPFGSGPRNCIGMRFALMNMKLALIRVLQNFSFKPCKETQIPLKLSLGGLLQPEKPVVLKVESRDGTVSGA
Protocol: as §1, §2, §3, §4, §5, §6

CYP1A2 = target: T3, CYP1A2 (Homo sapiens, UniProt P05177); test: as above; assay type: in vitro ADME
T3 construct: purchased BD GENTEST 459100
T3 sequence (P05177 1-516): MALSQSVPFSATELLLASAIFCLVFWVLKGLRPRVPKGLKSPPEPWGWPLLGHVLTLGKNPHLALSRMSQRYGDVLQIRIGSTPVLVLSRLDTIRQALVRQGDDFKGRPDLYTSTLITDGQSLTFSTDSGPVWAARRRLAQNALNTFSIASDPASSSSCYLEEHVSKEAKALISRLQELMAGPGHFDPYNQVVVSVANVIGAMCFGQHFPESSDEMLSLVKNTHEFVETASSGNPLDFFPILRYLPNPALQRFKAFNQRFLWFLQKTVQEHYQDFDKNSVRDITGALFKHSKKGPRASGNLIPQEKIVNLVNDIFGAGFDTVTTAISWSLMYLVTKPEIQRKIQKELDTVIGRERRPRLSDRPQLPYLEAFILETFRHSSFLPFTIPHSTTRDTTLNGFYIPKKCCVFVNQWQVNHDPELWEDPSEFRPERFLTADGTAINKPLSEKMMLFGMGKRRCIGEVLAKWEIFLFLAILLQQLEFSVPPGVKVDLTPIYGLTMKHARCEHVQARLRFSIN
Protocol: as §1, §2, §3, §4, §5, §6

CYP 2D6 = target: T4, CYP 2D6 (Homo sapiens, UniProt P10635); test: CYP (cytochrome P450)-suppressing effect, Invitrogen Vivid kit; assay type: in vitro ADME
T4 construct: purchased Invitrogen P2862
T4 sequence (P10635 whole entry): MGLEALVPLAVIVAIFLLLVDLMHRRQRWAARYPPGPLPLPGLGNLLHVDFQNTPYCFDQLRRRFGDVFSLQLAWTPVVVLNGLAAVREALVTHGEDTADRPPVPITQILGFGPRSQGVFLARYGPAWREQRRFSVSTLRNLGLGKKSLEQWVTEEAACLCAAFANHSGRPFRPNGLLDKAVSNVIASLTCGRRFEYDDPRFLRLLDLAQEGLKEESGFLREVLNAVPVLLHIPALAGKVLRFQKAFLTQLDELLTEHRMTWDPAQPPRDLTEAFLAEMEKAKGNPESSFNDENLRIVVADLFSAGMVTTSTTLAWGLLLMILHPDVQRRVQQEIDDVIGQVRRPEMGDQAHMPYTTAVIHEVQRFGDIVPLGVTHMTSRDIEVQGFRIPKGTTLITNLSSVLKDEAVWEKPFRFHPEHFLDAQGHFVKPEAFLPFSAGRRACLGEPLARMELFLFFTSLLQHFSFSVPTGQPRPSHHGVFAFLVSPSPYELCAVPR
Protocol: as §1, §2
(§7) When the Invitrogen kit was used, the compounds of the present invention were diluted in Vivid CYP450 reaction buffer (1×) at the final concentration of 2.5×. The P450 BACULOSOMES sample and Regeneration system (100×) were diluted in Vivid CYP450 reaction buffer (1×) at different proper concentrations. 80 μL of the compound of the invention (2.5×) and […] of the diluted P450 BACULOSOMES sample mixture were mixed in a U-bottom 96-well plate, followed by pre-incubation for 10 minutes. Vivid CYP450 Substrate and NADP+ (100×) were diluted in Vivid CYP450 reaction buffer (1×) at a desired concentration, respectively, according to their corresponding types of CYP450 and substrates. 20 μL of Substrate-NADP+ mix was loaded in the plate when the pre-incubation had been completed, followed by reaction for 1 hour. Upon completion of the reaction, the reaction mixture was transferred in a white plate and fluorescent wavelength was measured with a microplate reader (2C9 excitation 415 nm, emission 460 nm, 2D6 excitation 400 nm, emission 502 nm).
as §5, §6

CYP 2C9 = target: T5, CYP 2C9 (Homo sapiens, UniProt P11712); test: as above; assay type: in vitro ADME
T5 construct: purchased Invitrogen P2861
T5 sequence (P11712 whole entry): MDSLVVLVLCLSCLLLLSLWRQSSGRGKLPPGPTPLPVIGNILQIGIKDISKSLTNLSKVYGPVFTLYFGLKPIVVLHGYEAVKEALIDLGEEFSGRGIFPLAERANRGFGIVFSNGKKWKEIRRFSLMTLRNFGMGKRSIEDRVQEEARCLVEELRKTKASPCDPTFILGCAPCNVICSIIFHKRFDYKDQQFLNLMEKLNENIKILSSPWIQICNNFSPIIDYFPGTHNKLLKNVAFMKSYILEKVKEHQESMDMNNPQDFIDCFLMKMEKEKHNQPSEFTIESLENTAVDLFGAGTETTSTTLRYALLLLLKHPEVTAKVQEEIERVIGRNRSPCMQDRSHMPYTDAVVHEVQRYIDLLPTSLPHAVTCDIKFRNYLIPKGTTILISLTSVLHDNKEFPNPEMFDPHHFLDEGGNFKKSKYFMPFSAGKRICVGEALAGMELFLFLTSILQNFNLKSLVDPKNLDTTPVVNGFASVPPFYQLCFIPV
Protocol: as §1, §2, §7, §5, §6

[1] = target: T6, PPARG (peroxisome proliferator activated receptor-gamma), GST-PPARG-LBD (Homo sapiens, UniProt P37231); test: LanthaScreen TR-FRET PPARG Competitive Binding Assay; design: key: “+” indicates the degree of the binding activity, and as the number of “+” increases, the binding activity is stronger; ++: “+” indicates the degree of the binding activity, and as the number of “+” increases, the binding activity is stronger; +++: “+” indicates the degree of the binding activity, and as the number of “+” increases, the binding activity is stronger; ++++: “+” indicates the degree of the binding activity, and as the number of “+” increases, the binding activity is stronger; conditions: degree of binding activity
T6 construct: 15 μL of 5 nM GST-PPARG-LBD and 5 nM Tb-GST-antibody were added; purchased Invitrogen PV4894
T6 sequence (P37231 238-503 limits assumed): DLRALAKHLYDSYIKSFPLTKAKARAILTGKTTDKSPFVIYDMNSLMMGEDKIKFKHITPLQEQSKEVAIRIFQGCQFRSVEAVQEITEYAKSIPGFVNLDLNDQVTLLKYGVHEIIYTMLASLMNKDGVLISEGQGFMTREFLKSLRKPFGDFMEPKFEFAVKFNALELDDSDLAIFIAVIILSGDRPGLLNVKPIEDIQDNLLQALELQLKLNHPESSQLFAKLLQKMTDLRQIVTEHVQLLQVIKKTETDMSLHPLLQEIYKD
Method in brief: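 Ratio of 518 nm to 488 nm time-resolved emission after a 1 h room-temperature incubation, in competition format with GST-PPARG ligand-binding domain. Values are expressed as 100% minus compound-to-vehicle ratio and related to rosiglitazone binding.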

[2] = tested on: CYP isozymes 1A2, 2C9, 2C19, and 2D6; test: CYP suppression compared with comparative examples (Table 3); assay type: in vitro ADME; conditions: result in words
Protocol: as §1, §2, §7, §3, §4, §5, §6

CYP(10 μL, %) 2C19 (CYP 2C19) | CYP(10 μL, %) 3A4 (CYP 3A4) | CYP(10 μL, %) 1A2 (CYP1A2) | CYP(10 μL, %) 2D6 (CYP 2D6) | CYP(10 μL, %) 2C9 (CYP 2C9) | Binding assay (1 μLM) [1] | SMILES | suppression of CYP isozymes 1A2, 2C9, 2C19, and 2D6 compared with SR1664 and SR1824 [2]
32.45% | 71.88% | 64.12% | 68.34% | 6.43% |  | Cc1c(C)n(Cc2ccc(-c3ccccc3C(=O)O)cc2)c2ccc(C(=O)NC(C)c3ccc(Br)cc3)cc12 (centres unmarked) [2 (SR1824), SR1824, reference compound] | 
79.96% | 71.24% | 97.99% | 86.13% | 64.28% | ++ | C[C@H](NC(=O)c1ccc2c(c1)CCCN2Cc1ccc(-c2ccccc2C(=O)O)cc1)c1ccc(C#N)cc1 [Example 14, (S)-4′-((6-((1-(4-cyanophenyl)ethyl)carbamoyl)-3,4-dihydroquinoline-1(2H)-yl)methyl)-[1,1′-biphenyl]-2-caboxylic acid] | less than the compounds of the comparative examples; also recorded: less strongly than the compounds of the Comparative Examples
52.68% | 58.18% | 98.84% | 75.73% | 51.03% | +++ | C[C@H](NC(=O)c1ccc2c(c1)CCCN2Cc1ccc(-c2ccccc2C(N)=O)cc1)c1ccc(F)cc1 [Example 36, (S)-1-((2′-carbamoyl-[1,1′-biphenyl]-4-yl)methyl)-N-(1-(4-fluorophenyl)ethyl)-1,2,3,4-tetrahydroquinoline-6-carboxamide] | less than the compounds of the comparative examples; also recorded: less strongly than the compounds of the Comparative Examples
59.55% | 70.42% | 94.56% | 97.07% | 56.40% | +++ | C[C@H](NC(=O)c1ccc2c(c1)CCCN2Cc1ccc(-c2ccccc2C(N)=O)cc1)c1ccc2ccccc2c1 [Example 44, (S)-1-((2′-carbamoyl-[1,1′-biphenyl]-4-yl)methyl)-N-(1-(naphthalene-2-yl)ethyl)-1,2,3,4-tetrahydroquinoline-6-carboxamide] | less than the compounds of the comparative examples; also recorded: less strongly than the compounds of the Comparative Examples
 |  |  |  |  | ++ | C[C@H](NC(=O)c1ccc2c(c1)CCCN2Cc1ccccc1-c1ccc(C(N)=O)cc1)c1ccccc1 [Example 153, (S)-1-((4′-carbamoyl-[1,1′-biphenyl]-2-yl)methyl)-N-(1-phenylethyl)-1,2,3,4-tetrahydroquinolin-6-carboxamide] | 
 |  |  |  |  | + | Cc1ccc([C@H](C)NC(=O)c2ccc3c(c2)CCCN3Cc2ccccc2-c2ccc(C(=O)O)cc2)cc1F [Example 154, (S)-2′-((6-((1-(3-fluoro-4-methylphenyl)ethyl)carbamoyl)-3,4-dihydroquinoline-1(2H)-yl)methyl)-[1,1′-biphenyl]-4-carboxylic acid] | 
 |  |  |  |  | + | Cc1ccc([C@H](C)NC(=O)c2ccc3c(c2)CCCN3Cc2ccccc2-c2ccc(C(N)=O)cc2)cc1F [Example 158, (S)-1-((4′-carbamoyl-[1,1′-biphenyl]-2-yl)methyl)-N-(1-(3-fluoro-4-methylphenyl)ethyl)-1,2,3,4-tetrahydroquinoline-6-carboxamide] | 
 |  |  |  |  | + | C[C@H](NC(=O)c1ccc2c(c1)CCCN2Cc1ccccc1-c1ccc(C(N)=O)cc1)c1ccc([N+](=O)[O-])cc1 [Example 159, (S)-1-((4′-carbamoyl-[1,1′-biphenyl]-2-yl)methyl)-N-(1-(4-nitrophenyl)ethyl)-1,2,3,4-tetrahydroquinoline-6-carboxamide] | 
 |  |  |  |  | ++ | C[C@H](NC(=O)c1ccc2c(c1)CCCN2Cc1ccccc1-c1ccc(C(N)=O)cc1)c1ccc2ccccc2c1 [Example 160, (S)-1-((4′-carbamoyl-[1,1′-biphenyl]-2-yl)methyl)-N-(1-(naphthalene-2-yl)ethyl)-1,2,3,4-tetrahydroquinoline-6-carboxamide] | 
 |  |  |  |  | ++ | C[C@H](NC(=O)c1ccc2c(c1)CCCN2Cc1ccccc1-c1ccc(C(N)=O)cc1)c1ccc(C#N)cc1 [Example 161, (S)-1-((4′-carbamoyl-[1,1′-biphenyl]-2-yl)methyl)-N-(1-(4-cyanophenyl)ethyl)-1,2,3,4-tetrahydroquinoline-6-carboxamide] | 
 |  |  |  |  | +++ | C[C@H](NC(=O)c1ccc2c(c1)OCCN2Cc1ccc(-c2ccccc2C(=O)O)c(F)c1)c1ccccc1 [Example 162, (S)-2′-fluoro-4′-((7-((1-phenylethyl)carbamoyl)-2H-benzo[b][1,4]oxazine-4(3H)-yl)methyl)-[1,1′-biphenyl]-2-carboxylic acid] | 
 |  |  |  |  | +++ | C[C@H](NC(=O)c1ccc2c(c1)OCCN2Cc1ccc(-c2ccccc2C(=O)O)c(F)c1)c1ccc2ccccc2c1 [Example 163, (S)-2′-fluoro-4′-((7-((1-(naphthalene-2-yl)ethyl)carbamoyl)-2H-benzo[b][1,4]oxazine-4(3H)-yl)methyl)-[1,1′-biphenyl]-2-carboxylic acid] | 
 |  |  |  |  | +++ | Cc1ccc([C@H](C)NC(=O)c2ccc3c(c2)OCCN3Cc2ccc(-c3ccccc3C(=O)O)c(F)c2)cc1F [Example 164, (S)-2′-fluoro-4′-((7-(((3-fluoro-4-methylphenyl)ethyl)carbamoyl)-2H-benzo[b][1,4]oxazine-4(3)-yl)methyl)-[1,1′-biphenyl]-2-carboxylic acid] | 
